As usually defined, the TGI is the concentration at which net growth stops. A low value points to greater sensitivity of the cells. By GI50 is commonly meant the concentration that inhibits growth by half.

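Grown in 96-well plates, cells were treated for 48 hours with each compound at five concentrations. Insufficient inhibition: endpoint recorded as highest concentration tested. GI50 = concentration required for 50% inhibition of growth. TGI is the concentration that stops growth completely.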 A value given as a limit tells only on which side of the number the result lay.

Among the test systems are DMS 114 small cell lung; DMS 273 small cell lung; KM20L2 colon; SNB-78 CNS; DLD-1 colon; HOP-18 NSCLC; RXF-631 renal; XF 498 CNS; MDA-N.
Assay in all cases: DTP human tumour cell line panel, 48 h

Regarding `O=c1[nH]c(-c2ccccc2)nc2ccc(Cl)cc12`, the TGI in the test with DMS 114 small cell lung, in the test on DMS 273 small cell lung, with KM20L2 colon and in the test with SNB-78 CNS was more than 100 µM throughout.

Regarding `O=C(O)CNS(=O)(=O)c1ccc(NC(=O)c2ccc(F)cc2)cc1`, the TGI in the test on DLD-1 colon, with DMS 273 small cell lung, in the test with HOP-18 NSCLC, with KM20L2 colon, in the test on RXF-631 renal and in the test on XF 498 CNS was more than 100 µM throughout.

On to `O=C1O[C@H](C(Cl)(Cl)Cl)N2CCCC12` (stereo partly drawn), for which the TGI with DMS 114 small cell lung, in the test with DMS 273 small cell lung, with HOP-18 NSCLC, in the test on KM20L2 colon and with XF 498 CNS was more than 100 µM each time.

Turning to `Cn1ccnc1C(c1nccn1C)C(C)(C)[N+](=O)[O-]`, the TGI with DLD-1 colon, in the test with DMS 114 small cell lung, in the test on DMS 273 small cell lung, in the test on RXF-631 renal, in the test on SNB-78 CNS and in the test on XF 498 CNS was more than 100 µM each time.

For `CCOCC(=O)N[C@H]1CCc2cc(OC)c(OC)c(OC)c2-c2ccc(SC)c(=O)cc21`, the TGI is more than 100 µM with DLD-1 colon; less than 0.01 µM with DMS 114 small cell lung; more than 100 µM in the test on DMS 273 small cell lung; more than 100 µM with HOP-18 NSCLC; less than 0.01 µM in the test on KM20L2 colon; less than 0.01 µM in the test on MDA-N. Further, the TGI with RXF-631 renal was more than 46.4 µM; in the test on SNB-78 CNS, more than 100 µM; in the test with XF 498 CNS, 4.49 µM.

Consider `C=CCC12CCC(=O)C=C1CCC1(C2)OCCO1` (stereo not drawn), for which the TGI in the test on DLD-1 colon, with DMS 114 small cell lung, with DMS 273 small cell lung, with HOP-18 NSCLC, in the test with KM20L2 colon and in the test with RXF-631 renal was more than 100 µM throughout. In the test with SNB-78 CNS, the TGI was more than 100 µM.

With `NC1CCCCC1N.O=C([O-])P(=O)([O-])[O-].[Na+].[Pt+4]` (stereo not drawn), the GI50 in the test on DLD-1 colon, with HOP-18 NSCLC, in the test with KM20L2 colon and in the test with SNB-78 CNS was more than 100 µM throughout. The TGI with DLD-1 colon, in the test with HOP-18 NSCLC, with KM20L2 colon and in the test on SNB-78 CNS was more than 100 µM in each case.

Consider `COc1ccccc1/C=C1\CCC(CNc2ccc(Cl)cc2)C1=O` (stereo not drawn), for which the TGI in the test on DLD-1 colon was determined as 17.5 µM; in the test with DMS 114 small cell lung, 22.5 µM; in the test on DMS 273 small cell lung it was 20.2 µM; in the test with HOP-18 NSCLC, 30.2 µM; in the test with KM20L2 colon, 4.87 µM; in the test on SNB-78 CNS, 54.5 µM. This molecule yielded a TGI with XF 498 CNS of 42.7 µM.

Turning to `CC1=C(C)CC2(SC1)C(=O)c1ccccc1C2=O`, the TGI with DLD-1 colon, with DMS 114 small cell lung, in the test with DMS 273 small cell lung, with HOP-18 NSCLC, in the test with KM20L2 colon and in the test with RXF-631 renal was more than 100 µM each time. Also, the TGI in the test on SNB-78 CNS was more than 100 µM.

`Cc1ccc(C(=O)O/N=C2/CCCCC2CN(C)C)cc1` (stereo not drawn): the TGI in the test with DLD-1 colon, with DMS 114 small cell lung, in the test with DMS 273 small cell lung, in the test with HOP-18 NSCLC, with KM20L2 colon and in the test on RXF-631 renal was more than 100 µM throughout. In the test with SNB-78 CNS, this molecule displayed a TGI of more than 100 µM.

On to `O=C1CCC2CCc3cccc4oc1c2c34` (stereo not drawn), for which the TGI with DLD-1 colon, in the test with DMS 114 small cell lung, in the test with DMS 273 small cell lung, in the test on HOP-18 NSCLC, in the test with KM20L2 colon and in the test with SNB-78 CNS was more than 100 µM throughout. In the test on XF 498 CNS, this molecule gave a TGI of more than 100 µM.

On to `Oc1ccc2occ3c2c1CCC3`, for which the TGI with DLD-1 colon, with DMS 114 small cell lung, in the test on DMS 273 small cell lung, in the test with HOP-18 NSCLC, in the test with KM20L2 colon and in the test on RXF-631 renal was more than 100 µM throughout. Also, the TGI in the test with SNB-78 CNS and in the test with XF 498 CNS was more than 100 µM in each case.

For the molecule `CN(C)c1ccc(/C=C/C(=O)C(C)(C)C)cc1Br`, the TGI was 43.9 µM in the test on DLD-1 colon; 40.1 µM with DMS 114 small cell lung; more than 100 µM in the test on HOP-18 NSCLC; 79.5 µM in the test on KM20L2 colon; more than 100 µM in the test with SNB-78 CNS; 30.3 µM in the test with XF 498 CNS.

`C[N+](C)([O-])CCCNc1c2ccccc2nc2cccc([N+](=O)[O-])c12` yielded a TGI with MDA-N of 0.524 µM. That is a sub-micromolar value.

Molecule `NC1C2C(CC(=O)O)OCC=C3CN4CCC1(C(=O)C(=O)O)C4CC32` (stereo not drawn) returned a TGI with MDA-N of more than 100 µM.

For `O=S(=O)([O-])[O-].[Cl-].[NH2-].[NH2-].[NH2-].[NH2-].[Ru+3].c1ccc(-c2cccnc2)cc1`, the GI50 in the test with DLD-1 colon, with DMS 273 small cell lung, in the test on KM20L2 colon and in the test on SNB-78 CNS was more than 100 µM each time. The TGI in the test with DLD-1 colon, in the test on DMS 273 small cell lung, in the test with KM20L2 colon and in the test with SNB-78 CNS was more than 100 µM in each case.

Consider `COc1cc(N=Nc2ccccc2)cc(/C=N\[N-]C(N)=S)c1[O-].COc1cc(N=Nc2ccccc2)cc(/C=N\[N-]C(N)=S)c1[O-].[Fe+4]`, for which the GI50 is 18.5 µM in the test on DLD-1 colon, 11.8 µM in the test with DMS 114 small cell lung and more than 100 µM in the test with SNB-78 CNS. The values for the TGI in the test on DLD-1 colon, in the test on DMS 114 small cell lung and in the test with SNB-78 CNS were more than 100 µM, 83.4 µM and more than 100 µM, respectively.

Turning to `CCN(CC)c1ccc(N=C2C=CC(=O)c3ncccc32)c(C)c1`, the TGI with DLD-1 colon is 12 µM; with DMS 114 small cell lung, 12.9 µM; in the test with DMS 273 small cell lung it was 20.6 µM; with HOP-18 NSCLC, 22.8 µM; in the test on KM20L2 colon, 26.5 µM; with RXF-631 renal, 28.6 µM. Further, the TGI in the test with SNB-78 CNS was found to be 31.2 µM; in the test with XF 498 CNS, 5.19 µM.

As to `COc1ccc(S(=O)(=O)N/N=C/CN2C(=O)c3ccccc3C2=O)cc1OC`, the TGI in the test on DLD-1 colon, in the test with DMS 114 small cell lung, in the test on DMS 273 small cell lung, with KM20L2 colon, in the test on RXF-631 renal and with XF 498 CNS was more than 100 µM in each case.

Turning to `CC(C)COC(=O)N1N=NC2C3OC(CC3=O)C21` (stereo not drawn), the TGI with DLD-1 colon, with DMS 114 small cell lung, in the test with DMS 273 small cell lung, in the test with HOP-18 NSCLC, in the test with KM20L2 colon and with XF 498 CNS was more than 100 µM in each case.

Regarding `OCCN(CCO)c1cccc(N(CCO)CCO)c1`, the concentration for total growth inhibition (TGI) in the test with DLD-1 colon, in the test with DMS 114 small cell lung, in the test with DMS 273 small cell lung, in the test with KM20L2 colon, with RXF-631 renal and with SNB-78 CNS was more than 100 µM throughout. The same molecule came in with a TGI with XF 498 CNS of more than 100 µM.

Regarding `CC(=O)O[C@H]1CC[C@@]2(C)C(CC[C@]3(C)C2CC[C@]2(C)Oc4c(C)cc(O)cc4C[C@@H]23)C1(C)C` (stereo partly drawn), the TGI with DLD-1 colon is 27.1 µM; with DMS 114 small cell lung, 26.7 µM; in the test on DMS 273 small cell lung, 12.7 µM; in the test with HOP-18 NSCLC, 26.4 µM; in the test with KM20L2 colon, 19.2 µM; in the test on RXF-631 renal, 19.4 µM. The molecule further had a TGI with SNB-78 CNS of 21.8 µM.

With `CCON=C1C(C)(C)C(C)(C)C(C)(C)C1(C)C`, the TGI with MDA-N was more than 100 µM.

As for `CNS(=O)(=O)NN(C)S(=O)(=O)c1ccc(Cl)cc1`, the TGI in the test with DLD-1 colon, with DMS 114 small cell lung, in the test with DMS 273 small cell lung, with KM20L2 colon, in the test on RXF-631 renal and in the test with XF 498 CNS was more than 100 µM each time.

`CC(=N\O)/C(C)=N/O.CC(=N\O)/C(C)=N/O.CC(=N\O)/C(C)=N/O.CC(=N\O)/C(C)=N/O.[Cu].[Cu]`: in the test with MDA-N, the GI50 is 20.5 µM and the TGI turned out to be 43.5 µM.

`CCN(CC)CC(=O)/C=C/c1ccc(C)cc1`: the TGI with DLD-1 colon is 59.6 µM; in the test on DMS 114 small cell lung it was 37.9 µM; in the test with DMS 273 small cell lung, 55 µM; with HOP-18 NSCLC, 59.6 µM; with KM20L2 colon, 49.4 µM; in the test with SNB-78 CNS it was more than 100 µM. Also, in the test with XF 498 CNS, the concentration for total growth inhibition (TGI) is 92.4 µM.

As for `N#CCCN(CCC#N)c1ccc(/C=C2\N=C(COc3ccc(Cl)cc3Cl)OC2=O)cc1`, the TGI in the test with DLD-1 colon, with DMS 114 small cell lung, with DMS 273 small cell lung, with KM20L2 colon, in the test with RXF-631 renal and in the test with SNB-78 CNS was more than 100 µM each time. For the same molecule, in the test on XF 498 CNS, the TGI was more than 100 µM.

For the molecule `C=C(C)C(=O)OC1CC2(C)OC2CC(OC(C)=O)/C(C)=C/C2OC(=O)C(=C)C21` (stereo not drawn), the TGI in the test with MDA-N was 8.59 µM.

On to `O=c1[nH]c(=O)n(C2CC(O)C(CO)O2)cc1C(OCC(F)(F)F)OCC(F)(F)F` (stereo not drawn), for which the TGI with DLD-1 colon, in the test with DMS 114 small cell lung, in the test on DMS 273 small cell lung, in the test on KM20L2 colon, with RXF-631 renal and in the test on SNB-78 CNS was more than 100 µM each time. For the same molecule, in the test on XF 498 CNS, the TGI was more than 100 µM.

Values taken from PubChem BioAssay (NCI).
